Assays:
[1] = Stability of radiotracer by radio-HPLC and radio-TLC; format: physicochemical
Description: On identification of TEFM78 as the lead compound, a synthetic route to access a suitable precursor for late stage radiofluorination was developed (Scheme 3). Our approach focused on the synthesis of a 6-arylaminobenzamide that could undergo late-stage functionalisation at the 4′-position for subsequent radiofluorination. Nucleophilic aromatic substitution of 9b with 2,6-dimethylaniline (18), followed by Ullmann coupling and amidation gave benzamide 21 in 81% yield over the three steps. Activation of the electron-rich aniline ring was achieved using silver(I) triflimide-catalysed iodination.[17] Following optimisation (solvent and reaction time), this gave 22 in 54% yield. Subsequent Pd(0)-catalysed stannylation gave trimethyltin precursor 23 in 84% yield. The radiosynthesis of [^18F]TEFM78 was then performed using a TRACERlab FXFN automated synthesiser. No-carrier-added [^18F]fluoride from the cyclotron was trapped on a carbonate-pre-conditioned quaternary methyl ammonium (QMA) cartridge, eluted into the reaction vessel and then azeotropically dried. […]
Analytical HPLC was carried out on a Thermo Dionex Ulimate system 3000 equipped with a Berthold FlowStar LB 513 radio flow detector and a DAD-3000 UV detector. […] The nonradioactive standards were detected using a UV wavelength of 254 nm.

rat brain = assay: Pilot PET in vivo imaging in naïve rats; design: species or system Sprague–Dawley rats; conditions: intravenous bolus, n = 3
Procedure: Following successful preparation of [^18F]TEFM78, PET imaging with rodents was next conducted. On intravenous bolus administration of [^18F]TEFM78, there was rapid uptake of the radiotracer into the rat brain (Fig. 3a), followed by clearance within 20 minutes of the scan starting (Fig. 3b). […] The biodistribution and kinetics of the spinal cord were different from the brain with a lower peak radiotracer uptake but slower clearance (Fig. 3b). […] Typically, low free fraction of compounds can limit brain penetration. However, as shown in the PET images presented in Fig. 3, despite low free fraction, brain penetration of [^18F]TEFM78 is successfully achieved. […]
Fig. 3 Brain and spinal cord kinetics of [^18F]TEFM78 in naïve rats. […] Data expressed as SUV and presented as mean ± SEM, n = 3.
All animal procedures were performed in accordance with the guidelines for care and use of laboratory animals of Edinburgh University and experiments were approved by the Home Office under the Animals (Scientific Procedures) Act 1986, UK. […] Once the PET scans were reconstructed, data was analysed using PMOD image analysis software (PMOD Technologies LLC, Zürich, Switzerland). […] Time activity curves (TACs) were created for each region and PET data expressed as standard uptake value (SUV), calculated as radioactive concentration in the VOI divided by the injected dose and animal's weight.

radiochemical purity (RCP) ten hours after production (stability) [1]: > 99% | peak standard uptake value (SUV) in the brain (rat brain): 3 g/mL
Compound: COc1c(C)ccc(Nc2c(C)cc([18F])cc2C)c1C(N)=O [[^18F]TEFM78]

— publication PMC11729640, “Synthesis and evaluation of 6-arylaminobenzamides as positron emission tomography imaging ligands for the sphingosine-1-phosphate-5 receptor” (RSC Medicinal Chemistry, 2025)
